Results from patent US20050009706A1, “Alpha-cyanoacrylates” (priority 2001, published 2005).

Columns and labels:
Setaria faberii [1] = assay: greenhouse experiment, pre-emergence treatment; assay type: in vivo
Description: (§1) The seeds of the test plants were sown separately for each species. For the pre-emergence treatment, directly after sowing the active compounds, which had been suspended or emulsified in water, were applied by means of finely distributing nozzles. The containers were irrigated gently to promote germination and growth and subsequently covered with transparent plastic hoods until the plant had rooted. This cover caused uniform germination of the test plants, unless this was adversely affected by reactive compounds. The application rate for a pre-emergence treatment was 0.5 or 1.0 kg of a.s. (active substance)/ha. Depending on the species, the plants were kept at 10-25° C. or 20-35° C. The test period extended over 2 to 4 weeks. During this time, the plants were tended, and their response to the individual treatments was evaluated. Evaluation was carried out using a scale from 0 to 100. 100 means no emergence of the plants, or complete destruction of at least the above-ground parts, and 0 means no damage, or normal course of growth. The plants used in the greenhouse experiments were of the following species: [table]

Pharbitis purpurea = assay: greenhouse experiment, post-emergence treatment; assay type: in vivo
Description: (§2) The seeds of the test plants were sown separately for each species. For the post-emergence treatment, the test plants were first grown to a height of from 3 to 15 cm, depending on the plant habit, and only then treated with the active compounds which had been suspended or emulsified in water. The test plants were for this purpose either sown directly and grown in the same containers, or they were first grown separately as seedlings and transplanted into the test containers a few days prior to treatment. The application rate for the post-emergence treatment was 0.5 or 1.0 kg of a.s. (active substance)/ha. Depending on the species, the plants were kept at 10-25° C. or 20-35° C. The test period extended over 2 to 4 weeks. During this time, the plants were tended, and their response to the individual treatments was evaluated. Evaluation was carried out using a scale from 0 to 100. 100 means no emergence of the plants, or complete destruction of at least the above-ground parts, and 0 means no damage, or normal course of growth. The plants used in the greenhouse experiments were of the following species: [table]

Amaranthus retroflexus = assay: greenhouse experiment, pre-emergence treatment; assay type: in vivo; conditions: 1.0 kg/ha
Description: as §1

Setaria faberii [2] = assay: greenhouse experiment, post-emergence treatment; assay type: in vivo; conditions: 1.0 kg/ha
Description: as §2

Digitaria sanguinalis = assay: greenhouse experiment, pre-emergence treatment; assay type: in vivo
Description: as §1

SMILES: CCC(CC)/C(N)=C(\C#N)C(=O)OC(C)C(C)C (stereo not drawn) [Example 4.7]
- effect on the harmful plant Setaria faberii (Setaria faberii [1]; 1.0 kg/ha): good
- post-emergence activity against Pharbitis purpurea (Pharbitis purpurea; 1.0 kg/ha): good

SMILES: CCC(CC)/C(N)=C(\C#N)C(=O)OC1CCCO1 (stereo not drawn) [Example 4.43]
- melting point: 180 °C

SMILES: CCC(CC)/C(N)=C(\C#N)C(=O)OC(C)C [Example 4.1, Isopropyl (2Z)-3-amino-2-cyano-4-ethyl-2-hexenoate]
- effect on the harmful plant Amaranthus retroflexus (Amaranthus retroflexus): very good
- effect on the harmful plant Setaria faberii (Setaria faberii [1]; 1.0 kg/ha): very good
- post-emergence activity against Pharbitis purpurea (Pharbitis purpurea; 1.0 kg/ha): very good
- post-emergence activity against Setaria faberii (Setaria faberii [2]): very good

SMILES: CCC(COC)/C(N)=C(\C#N)C(=O)OC(C)C (stereo not drawn) [Example 5.2]
- effect on the harmful plant Setaria faberii (Setaria faberii [1]; 1.0 kg/ha): very good
- post-emergence activity against Pharbitis purpurea (Pharbitis purpurea; 1.0 kg/ha): very good

SMILES: CCC(CC)/C(N)=C(\C#N)C(=O)OC(C)CCl (stereo not drawn) [Example 4.30]
- effect on the harmful plant Digitaria sanguinalis (Digitaria sanguinalis; 1.0 kg/ha): very good
- effect on the harmful plant Setaria faberii (Setaria faberii [1]; 1.0 kg/ha): very good

SMILES: CCC(C)OC(=O)/C(C#N)=C(\N)C(CC)CC (stereo not drawn) [Example 4.2]
- effect on the harmful plant Digitaria sanguinalis (Digitaria sanguinalis; 0.5 kg/ha): very good
- effect on the harmful plant Setaria faberii (Setaria faberii [1]; 0.5 kg/ha): very good
- post-emergence activity against Pharbitis purpurea (Pharbitis purpurea; 0.5 kg/ha): very good

SMILES: CCC(CC)/C(N)=C(\C#N)C(=O)OC1CCCCC1 [Example 4.12]
- melting point: 154 °C

SMILES: CCC(CC)/C(N)=C(\C#N)C(=O)OCCC(F)(F)F [Example 4.22]
- effect on the harmful plant Digitaria sanguinalis (Digitaria sanguinalis; 0.5 kg/ha): very good
- effect on the harmful plant Setaria faberii (Setaria faberii [1]; 0.5 kg/ha): very good

SMILES: CCCC(CC)/C(N)=C(\C#N)C(=O)OC(C)C (stereo not drawn) [Example 5.3]
- effect on the harmful plant Setaria faberii (Setaria faberii [1]; 1.0 kg/ha): very good

SMILES: CCC(CC)/C(N)=C(\C#N)C(=O)NC(C)C [Example 6.5]
- melting point: 164 °C

SMILES: CCC(CC)/C(N)=C(\C#N)C(=O)OC1COC1 [Example 4.14, 3-Oxetanyl (2Z)-3-amino-2-cyano-4-ethyl-2-hexenoat]
- effect on the harmful plant Setaria faberii (Setaria faberii [1]; 1.0 kg/ha): very good

SMILES: C#CCC(CC)/C(N)=C(\C#N)C(=O)OC(C)C (stereo not drawn) [Example 5.10]
- effect on the harmful plant Setaria faberii (Setaria faberii [1]; 1.0 kg/ha): very good

SMILES: CCNC(=O)/C(C#N)=C(\N)C(CC)CC [Example 6.3]
- effect on the harmful plant Setaria faberii (Setaria faberii [1]; 1.0 kg/ha): very good
- post-emergence activity against Pharbitis purpurea (Pharbitis purpurea; 1.0 kg/ha): very good
- melting point: 104 to 106 °C

SMILES: CCC(CC)/C(N)=C(\C#N)C(N)=O [Example 6.1]
- melting point: 125 °C

SMILES: C=CC(C)OC(=O)/C(C#N)=C(\N)C(CC)CC (stereo not drawn) [Example 4.16]
- effect on the harmful plant Digitaria sanguinalis (Digitaria sanguinalis; 1.0 kg/ha): very good
- effect on the harmful plant Setaria faberii (Setaria faberii [1]; 1.0 kg/ha): very good

SMILES: CCC(CC)/C(N)=C(\C#N)C(=O)N(C)C [Example 6.21]
- melting point: 132 °C

SMILES: CCC(CC)/C(N)=C(\C#N)C(=O)OCC(C)(C)C [Example 4.6]
- effect on the harmful plant Setaria faberii (Setaria faberii [1]; 1.0 kg/ha): very good
- post-emergence activity against Pharbitis purpurea (Pharbitis purpurea; 1.0 kg/ha): very good

SMILES: CCC(CC)/C(N)=C(\C#N)C(=O)SC(C)C [Example 7.3]
- post-emergence activity against Pharbitis purpurea (Pharbitis purpurea; 1.0 kg/ha): very good
- melting point: 115 °C

SMILES: C#CCC(CC=C)/C(N)=C(\C#N)C(=O)OC(C)C (stereo not drawn) [Example 5.11]
- post-emergence activity against Pharbitis purpurea (Pharbitis purpurea; 1.0 kg/ha): very good

SMILES: CCC(CC)/C(N)=C(\C#N)C(=O)OCC1CC1 [Example 4.13]
- effect on the harmful plant Digitaria sanguinalis (Digitaria sanguinalis; 1.0 kg/ha): very good
- effect on the harmful plant Setaria faberii (Setaria faberii [1]; 1.0 kg/ha): very good
- melting point: 125 °C

SMILES: CCC(CC)/C(N)=C(\C#N)C(=O)OCCCl [Example 4.23]
- effect on the harmful plant Setaria faberii (Setaria faberii [1]; 1.0 kg/ha): very good
- post-emergence activity against Pharbitis purpurea (Pharbitis purpurea; 1.0 kg/ha): very good

SMILES: CCC(CC)/C(N)=C(\C#N)C(=O)NC [Example 6.2]
- melting point: 146 °C

SMILES: CCC(CC)/C(N)=C(\C#N)C(=O)OCC(C)C [Example 4.5]
- effect on the harmful plant Digitaria sanguinalis (Digitaria sanguinalis; 1.0 kg/ha): very good
- effect on the harmful plant Setaria faberii (Setaria faberii [1]; 1.0 kg/ha): very good
- post-emergence activity against Pharbitis purpurea (Pharbitis purpurea; 1.0 kg/ha): very good

SMILES: CCCC(CCC)/C(N)=C(\C#N)C(=O)OC(C)C [Example 5.6]
- post-emergence activity against Pharbitis purpurea (Pharbitis purpurea; 1.0 kg/ha): very good

SMILES: C#CCOC(=O)/C(C#N)=C(\N)C(CC)CC [Example 4.19]
- effect on the harmful plant Digitaria sanguinalis (Digitaria sanguinalis; 0.5 kg/ha): very good
- effect on the harmful plant Setaria faberii (Setaria faberii [1]; 0.5 kg/ha): very good

SMILES: CCC(CC)/C(N)=C(\C#N)C(=O)O [Example 4.42, (2Z)-3-Amino-2-cyano-4-ethyl-2-hexene acid]
- melting point: 165 °C

SMILES: CCC(CC)/C(N)=C(\C#N)C(=O)OC(C)(C)C [Example 4.4]
- effect on the harmful plant Setaria faberii (Setaria faberii [1]; 1.0 kg/ha): very good
- post-emergence activity against Pharbitis purpurea (Pharbitis purpurea; 1.0 kg/ha): very good
- melting point: 150 °C

SMILES: CCC(CC)/C(N)=C(\C#N)C(=O)OC1CCOC1 (stereo not drawn) [Example 4.38]
- melting point: 105 to 110 °C

SMILES: C#CC(C)OC(=O)/C(C#N)=C(\N)C(CC)CC (stereo not drawn) [Example 4.20]
- effect on the harmful plant Digitaria sanguinalis (Digitaria sanguinalis; 1.0 kg/ha): very good
- effect on the harmful plant Setaria faberii (Setaria faberii [1]; 1.0 kg/ha): very good
- post-emergence activity against Pharbitis purpurea (Pharbitis purpurea; 1.0 kg/ha): very good

SMILES: C=CCC(CC)/C(N)=C(\C#N)C(=O)OC(C)C (stereo not drawn) [Example 5.7]
- effect on the harmful plant Digitaria sanguinalis (Digitaria sanguinalis; 1.0 kg/ha): very good
- effect on the harmful plant Setaria faberii (Setaria faberii [1]; 1.0 kg/ha): very good
- post-emergence activity against Pharbitis purpurea (Pharbitis purpurea; 1.0 kg/ha): very good

SMILES: CCNC(=O)/C(C#N)=C(\N)C(CC)CC [Example 6.29]
- melting point: 124 °C

SMILES: CCC(CC)/C(N)=C(\C#N)C(=O)OC1CCCC1 [Example 4.11]
- effect on the harmful plant Setaria faberii (Setaria faberii [1]; 1.0 kg/ha): very good
- post-emergence activity against Pharbitis purpurea (Pharbitis purpurea; 1.0 kg/ha): very good
- melting point: 140 °C

SMILES: CCC(CC)/C(N)=C(\C#N)C(=O)OCC(F)(F)F [Example 4.25]
- effect on the harmful plant Setaria faberii (Setaria faberii [1]; 1.0 kg/ha): very good
- melting point: 115 °C

SMILES: CCC(CC)/C(N)=C(\C#N)C(=O)OCCCCl [Example 4.29]
- effect on the harmful plant Setaria faberii (Setaria faberii [1]; 1.0 kg/ha): good
- post-emergence activity against Pharbitis purpurea (Pharbitis purpurea; 1.0 kg/ha): very good

SMILES: C=CCC(CC=C)/C(N)=C(\C#N)C(=O)OC(C)C [Example 5.9]
- post-emergence activity against Pharbitis purpurea (Pharbitis purpurea; 1.0 kg/ha): very good

SMILES: CCC(CC)/C(N)=C(\C#N)C(=O)OC(C)C#N (stereo not drawn) [Example 4.35]
- effect on the harmful plant Setaria faberii (Setaria faberii [1]; 1.0 kg/ha): good
